Test results taken from PMC8924752, “Functional characterization of the human Cdk10/Cyclin Q complex” (Open Biology, 2022).

Legend:
[1] = target: T1, Cdk10/CycQ (Homo sapiens, UniProt Q15131); test: Radiometric kinase assay, inhibition of Cdk10/CycQ (c-MYC substrate); type: biochemical; conditions: for Times more potent towards Cdk9 than Cdk10: ratio of IC50 values Cdk10 vs Cdk9; for Cross reactivity with Cdk10 (effect of inhibitor on Cdk10): at conditions that result in full inhibition of their primary target, supplementary figure S3
T1 construct: We expressed the human full-length Cdk10/CycQ complex in Sf9 insect cells; MBP (followed by TEV site) (N, cleaved yes); made in house; host or cells: Sf9 insect cells (baculovirus); c-MYC substrate from E. coli BL21 pLysS
Protocol: Figure 3. […] (a) Chemical structures of the inhibitors tested against Cdk10/CycQ.
Kinase assays with recombinant proteins were performed in kinase assay buffer (50 mM Hepes pH7.6, 34 mM KCl, 7 mM MgCl2, 5 mM β-Glycerophosphate, 2.5 mM DTE). If not indicated otherwise, reactions contained 0.2 µM kinase, were started by the addition of ATP to 1 mM final concentration and incubated at 30°C in a shaking incubator.
For quantitative analysis, radioactive kinase assays were performed. Reactions were done in a total volume of 15 µl per sample. If not indicated otherwise, reactions contained 0.2 µM kinase, were started by addition of ATP to 1 mM containing 0.34 µCi γ[^32P] (Perkin Elmer) and incubated at 30°C in a shaking incubator. Reactions were stopped by adding EDTA to a final concentration of 50 mM. Samples were spotted onto Amersham Protran nitrocellulose membrane (GE Healthcare) filter sheets. Filters were washed three times for 5 min with PBS to remove free, non-reacted ATP. Samples were transferred to 4 ml liquid scintillation vials and immersed in 2 ml liquid scintillator (UltimaGold). Radioactivity was counted in a Beckman Liquid Scintillation Counter (Beckman-Coulter) for 1 min.
All compounds were solved at a stock concentration of 10 mM in DMSO and further pre-diluted in DMSO for dose–response measurement. For IC50 determination radioactive kinase assays were run as described above in presence of increasing concentration of inhibitor. For analysis, the data were normalized to the DMSO solvent control and the activity plotted against the inhibitor concentration. IC50 values were determined from duplicate measurements by sigmoidal curve fitting with a variable slope using GraphPadPrism, v.

[2] = target: T2, Cdk9 (Homo sapiens, UniProt P50750); test: Radiometric kinase assay, inhibition of Cdk9 (c-MYC substrate); type: biochemical; conditions: 200 nM kinase, 1 mM ATP, 5 mM Mg2+, 50 µM c-MYC (17-167) as substrate
T2 construct: His; made in house; host or cells: Cdk9 in Sf9 insect cells; CycT1 (1-272) in E. coli

[3] = target: T1, Cdk10/CycQ; test: Radiometric kinase assay, inhibition of Cdk10/CycQ (c-MYC substrate); type: biochemical; conditions: 200 nM kinase, 1 mM ATP, 5 mM Mg2+, 50 µM c-MYC (17-167) as substrate
[4] = test system: Cdk10; design: method as in PMID 29251720; conditions: MOLT4 lysates; cited from earlier work
[5] = test system: Cdk10; design: method as in PMID 29251720; conditions: cited from earlier work

T1 sequence (Q15131 whole entry): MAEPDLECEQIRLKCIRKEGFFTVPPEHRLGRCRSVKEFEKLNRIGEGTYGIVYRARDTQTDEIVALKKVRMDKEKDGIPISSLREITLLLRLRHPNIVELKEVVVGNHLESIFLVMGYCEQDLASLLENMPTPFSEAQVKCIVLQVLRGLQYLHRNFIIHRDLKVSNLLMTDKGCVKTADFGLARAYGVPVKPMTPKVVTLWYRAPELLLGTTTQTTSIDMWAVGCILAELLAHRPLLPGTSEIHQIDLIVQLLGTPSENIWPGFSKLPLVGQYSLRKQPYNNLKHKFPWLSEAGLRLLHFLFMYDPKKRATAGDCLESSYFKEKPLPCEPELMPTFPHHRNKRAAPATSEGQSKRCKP
T1 sequence (Q8N1B3 whole entry partner): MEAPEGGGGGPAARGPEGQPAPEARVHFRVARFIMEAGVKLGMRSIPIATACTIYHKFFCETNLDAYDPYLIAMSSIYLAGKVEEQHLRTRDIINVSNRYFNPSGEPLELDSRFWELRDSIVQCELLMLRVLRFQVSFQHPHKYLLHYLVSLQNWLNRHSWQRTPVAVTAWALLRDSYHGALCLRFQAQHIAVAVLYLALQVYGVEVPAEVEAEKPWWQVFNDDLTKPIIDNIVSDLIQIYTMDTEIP
T2 sequence (P50750 whole entry, species assumed): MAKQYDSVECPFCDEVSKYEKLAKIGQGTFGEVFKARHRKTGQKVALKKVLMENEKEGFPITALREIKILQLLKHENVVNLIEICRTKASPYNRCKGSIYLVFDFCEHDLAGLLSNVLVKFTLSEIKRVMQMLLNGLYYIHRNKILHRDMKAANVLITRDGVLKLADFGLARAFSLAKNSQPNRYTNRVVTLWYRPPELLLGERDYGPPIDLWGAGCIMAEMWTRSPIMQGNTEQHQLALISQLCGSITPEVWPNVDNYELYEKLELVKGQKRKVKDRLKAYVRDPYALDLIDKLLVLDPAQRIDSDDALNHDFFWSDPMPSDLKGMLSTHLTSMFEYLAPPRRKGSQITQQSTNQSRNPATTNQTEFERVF
T2 sequence (O60563 1-272 partner limits assumed, species assumed): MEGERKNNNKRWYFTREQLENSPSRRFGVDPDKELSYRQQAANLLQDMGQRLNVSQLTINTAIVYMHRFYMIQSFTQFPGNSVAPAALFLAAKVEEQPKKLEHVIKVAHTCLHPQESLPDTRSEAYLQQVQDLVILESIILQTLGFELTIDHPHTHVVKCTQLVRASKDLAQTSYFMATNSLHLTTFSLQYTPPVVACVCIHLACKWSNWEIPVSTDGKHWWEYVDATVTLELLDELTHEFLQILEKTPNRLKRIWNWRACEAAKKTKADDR

Structure (SMILES) | Times more potent towards Cdk9 than Cdk10 [1] | Cross reactivity with Cdk10 (effect of inhibitor on Cdk10) [1] | other results
COCC(C)NC1CCC(Nc2cc(-c3cccc(NCC4(C#N)CCOCC4)n3)c(Cl)cn2)CC1 (centres unmarked) [NVP-2] | at least 5 times | – | IC50 [2]: 58 nM; IC50 [3]: 1040 nM; Binding to Cdk10 [4]: identified binding to Cdk10
Cc1cc(O)c(-c2ccc([C@@H](C)CN(C)C)cc2)c2c1[nH]c(=O)c1sccc12 [OTS964] | – | – | IC50 [2]: 138000 nM; IC50 [3]: 5370 nM
CC(C)(C)c1cnc(CSc2cnc(NC(=O)C3CCN(CC(=O)NCCOCCOCCOCCNc4cccc5c4C(=O)N(C4CCC(=O)NC4=O)C5=O)CC3)s2)o1 (centres unmarked) [THAL-SNS-032] | – | – | Degradation of Cdk10 [5]: degrades Cdk10 only after a longer incubation period
C=CC(=O)Nc1ccc(C(=O)Nc2[nH]nc3c2CN(C(=O)N[C@H](CN(C)C)c2ccccc2)C3(C)C)cc1 [YKL-5-124] | – | did not observe any considerable effect | –
CCN1CCN(Cc2ccc(Nc3ncc(F)c(-c4cc(F)c5nc(C)n(C(C)C)c5c4)n3)nc2)CC1 [abemaciclib] | – | did not observe any considerable effect | –
CCc1cnn2c(NCc3ccc[n+]([O-])c3)cc(N3CCCC[C@H]3CCO)nc12 [dinaciclib] | at least 5 times | – | IC50 [3]: 298 nM
CN1CC[C@H](c2c(O)cc(O)c3c(=O)cc(-c4ccccc4Cl)oc23)[C@H](O)C1 [flavopiridol] | at least 5 times | – | –
CC(=O)c1c(C)c2cnc(Nc3ccc(N4CCNCC4)cn3)nc2n(C2CCCC2)c1=O [palbociclib] | – | did not observe any considerable effect | –

Now from value to molecule, other results behind:

Times more potent towards Cdk9 than Cdk10 [1] | Cross reactivity with Cdk10 (effect of inhibitor on Cdk10) [1] | Structure (SMILES) | other results
at least 5 times | – | CC(C)(C)c1cnc(CSc2cnc(NC(=O)C3CCNCC3)s2)o1 [SNS-032] | Binding to Cdk10 [4]: identified binding to Cdk10
– | did not observe any considerable effect | CN(C)C/C=C/C(=O)Nc1ccc(C(=O)Nc2cccc(Nc3ncc(Cl)c(-c4c[nH]c5ccccc45)n3)c2)cc1 [THZ-1] | –
– | did not observe any considerable effect | CN(C)C/C=C/C(=O)Nc1ccc(C(=O)N2CCC[C@@H](Nc3ncc(Cl)c(-c4c[nH]c5ccccc45)n3)C2)cc1 [THZ-531] | –
